These results are taken from patent US8207155B2, “Sulfonyl-azetidin-3-yl-methylamine amide analogs as GlyTl inhibitors, methods for making same, and use of same in treating psychiatric disorders” (Vanderbilt University, priority 2009, dated 2012).

By IC50 is commonly meant the concentration that gives 50% inhibition.

The target in the first assay is T1, GlyT1 (Homo sapiens, UniProt P48067).
T1 construct: Human placental choriocarcinoma cells endogenously expressing GlyT1; endogenous in cells; host or cells: JAR human placental choriocarcinoma cells
T1 sequence (P48067 1-706): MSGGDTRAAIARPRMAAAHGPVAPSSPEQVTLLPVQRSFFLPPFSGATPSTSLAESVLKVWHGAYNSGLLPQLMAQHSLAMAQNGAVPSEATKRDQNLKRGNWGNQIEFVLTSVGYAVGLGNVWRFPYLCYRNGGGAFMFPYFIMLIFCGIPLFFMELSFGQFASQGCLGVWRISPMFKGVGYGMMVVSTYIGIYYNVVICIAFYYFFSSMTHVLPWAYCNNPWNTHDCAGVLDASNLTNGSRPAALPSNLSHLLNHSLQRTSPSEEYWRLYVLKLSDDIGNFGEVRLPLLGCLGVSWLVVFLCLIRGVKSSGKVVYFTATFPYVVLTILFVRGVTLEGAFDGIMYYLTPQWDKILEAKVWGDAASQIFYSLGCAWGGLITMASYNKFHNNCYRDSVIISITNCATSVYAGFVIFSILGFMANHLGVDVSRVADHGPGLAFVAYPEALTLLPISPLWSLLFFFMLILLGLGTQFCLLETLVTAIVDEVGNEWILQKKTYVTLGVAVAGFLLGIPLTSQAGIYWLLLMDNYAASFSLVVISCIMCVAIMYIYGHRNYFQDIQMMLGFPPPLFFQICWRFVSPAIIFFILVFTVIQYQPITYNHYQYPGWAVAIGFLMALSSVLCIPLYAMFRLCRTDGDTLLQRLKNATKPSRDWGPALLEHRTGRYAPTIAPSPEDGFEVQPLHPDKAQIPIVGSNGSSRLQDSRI
Kind of assay: GlyT1 [14C]-glycine uptake inhibition in human placental choriocarcinoma (JAR) cells. It counts as cell-based. To be noted: inhibition of specific [14C]-glycine uptake; cells endogenously expressing GlyT1; value printed in pM; read-out: Potency (IC50). As to the method: Human placental choriocarcinoma cells endogenously expressing GlyT1 can be cultured using standard conditions. Cells can then be grown at 37° C. in a humidified atmosphere 40-48 hours before the assay. Culture medium can be removed from the culture plate, and cells can be incubated with an amount of TB1A buffer with or without the compounds of the present invention for a sufficient period of time. Then an amount of [^14C]-glycine diluted with TB1A can be added to each well. After incubation the microplates can be sealed and counted. Non-specific uptake of [^14C]-glycine can be determined in the presence of unlabeled glycine. To determine potencies, a range of concentrations of the compounds of the present invention can be added to the cells, followed by the fixed concentration of [^14C]-glycine. The concentration of the present compound that inhibited half of the specific uptake of [^14C]glycine (IC50 value) can be determined from the assay data by non-linear curve fitting.
On to `Cn1cnc(S(=O)(=O)N2CC(C(NC(=O)c3ccc(Cl)cc3Cl)c3ccccc3)C2)c1` (single isomer, unassigned) [Compound 3b-1, 2,4-dichloro-N-((1(1-methyl-1H-imidazol-4-ylsulfonyl)azetidin-3-yl)(phenyl)methyl)benzamide], for which the IC50 was found to be 29 pM.

The assay is the same for the next values; noted with them: inhibition of specific [14C]-glycine uptake; cells endogenously expressing GlyT1; values given in μM; read-out: Potency (IC50).
For the compound `CCCS(=O)(=O)N1CC(C(NC(=O)c2ccc(Cl)cc2Cl)c2ccccc2)C1` (single isomer, unassigned) [Compound 3a-1, 2,4-dichloro-N-(phenyl(1-(propylsulfonyl)azetidin-3-yl)methyl)benzamide], the IC50 was over 1e+07 pM.
The same measure, in the same setting: under `Cn1cnc(S(=O)(=O)N2CC(C(NC(=O)c3ccc(F)cc3)c3ccccc3)C2)c1` (centres unmarked) [Compound 9d] stands over 1e+07 pM; under `Cn1cnc(S(=O)(=O)N2CC(C(NC(=O)c3ccccc3F)c3ccccc3)C2)c1` (centres unmarked) [Compound 9e], 1.1e+06 pM; under `Cn1cnc(S(=O)(=O)N2CC(C(NC(=O)c3ccc(F)c(F)c3)c3ccccc3)C2)c1` (centres unmarked) [Compound 9i], 1e+06 pM.
For the compound `Cn1cnc(S(=O)(=O)N2CC(C(NC(=O)c3cc(Cl)cc(Cl)c3)c3ccccc3)C2)c1` (centres unmarked) [Compound 9j], the IC50 turned out to be 1.5e+06 pM.
Take `Cn1cnc(S(=O)(=O)N2CC(C(NC(=O)c3ccc(Cl)cc3Cl)C3CCCC3)C2)c1` (centres unmarked) [Compound 10e]: the IC50 was 1.6e+06 pM.

Staying with this assay, now noted: inhibition of specific [14C]-glycine uptake; cells endogenously expressing GlyT1; values in nM; read-out: Potency (IC50).
Consider `CCCS(=O)(=O)N1CC(C(NC(=O)c2ccc(Cl)cc2Cl)c2ccccc2)C1` (single isomer, unassigned) [Compound 3a-2, 2,4-dichloro-N-(phenyl(1-(propylsulfonyl)azetidin-3-yl)methyl)benzamide], for which the IC50 amounted to 627000 pM.
On the same count and under the same terms, under `Cn1cnc(S(=O)(=O)N2CC(C(NC(=O)c3ccc(Cl)cc3Cl)c3ccccc3)C2)c1` (single isomer, unassigned) [Compound 3b-2, 2,4-dichloro-N-((1(1-methyl-1H-imidazol-4-ylsulfonyl)azetidin-3-yl)(phenyl)methyl)benzamide] stands 627000 pM.
For `CCCS(=O)(=O)N1CC(C(NC(=O)c2ccc(Cl)cc2Cl)c2ccccc2)C1` (centres unmarked) [Compound 3a, 2,4-dichloro-N-(phenyl(1-(propylsulfonyl)azetidin-3-yl)methyl)benzamide], the IC50 is 730000 pM.
As to `Cn1cnc(S(=O)(=O)N2CC(C(NC(=O)c3ccc(Cl)cc3Cl)c3ccccc3)C2)c1` (centres unmarked) [Compound 3b, 2,4-dichloro-N-((1(1-methyl-1H-imidazol-4-ylsulfonyl)azetidin-3-yl)(phenyl)methyl)benzamide], the IC50 came to 39000 pM.
On the same count and under the same terms, next, `Cn1cnc(S(=O)(=O)N2CC(C(NC(=O)c3ccccc3Cl)c3ccccc3)C2)c1` (centres unmarked) [Compound 9a]: 133000 pM.
The same measure, in the same setting: next, `Cn1cnc(S(=O)(=O)N2CC(C(NC(=O)c3ccc(Cl)cc3)c3ccccc3)C2)c1` (centres unmarked) [Compound 9b]: 334000 pM; `Cn1cnc(S(=O)(=O)N2CC(C(NC(=O)c3ccc(Cl)c(Cl)c3)c3ccccc3)C2)c1` (centres unmarked) [Compound 9c]: 446000 pM; `Cn1cnc(S(=O)(=O)N2CC(C(NC(=O)c3c(F)cccc3F)c3ccccc3)C2)c1` (centres unmarked) [Compound 9f]: 439000 pM.
In the case of `Cn1cnc(S(=O)(=O)N2CC(C(NC(=O)c3ccccc3C(F)(F)F)c3ccccc3)C2)c1` (centres unmarked) [Compound 9g], the IC50 is 101000 pM.
Still for that read-out and setting: next, `Cn1cnc(S(=O)(=O)N2CC(C(NC(=O)c3ccc(F)cc3F)c3ccccc3)C2)c1` (centres unmarked) [Compound 9h]: 454000 pM; `Cn1cnc(S(=O)(=O)N2CC(C(NC(=O)c3cccnc3Cl)c3ccccc3)C2)c1` (centres unmarked) [Compound 9k]: 718000 pM; `CC(C)C(NC(=O)c1ccc(Cl)cc1Cl)C1CN(S(=O)(=O)c2cn(C)cn2)C1` (centres unmarked) [Compound 10a]: 394000 pM.
On the same count and under the same terms, under `CCCC(NC(=O)c1ccc(Cl)cc1Cl)C1CN(S(=O)(=O)c2cn(C)cn2)C1` (centres unmarked) [Compound 10b] stands 185000 pM.
Still for that read-out and setting: under `Cn1cnc(S(=O)(=O)N2CC(C(NC(=O)c3ccc(Cl)cc3Cl)c3cccs3)C2)c1` (centres unmarked) [Compound 10c] stands 40000 pM; under `Cn1cnc(S(=O)(=O)N2CC(C(NC(=O)c3ccc(Cl)cc3Cl)C3CC3)C2)c1` (centres unmarked) [Compound 10d], 253000 pM; under `CC(C)CC(NC(=O)c1ccc(Cl)cc1Cl)C1CN(S(=O)(=O)c2cn(C)cn2)C1` (centres unmarked) [Compound 10f], 581000 pM.
For `Cn1cnc(S(=O)(=O)N2CC(C(NC(=O)c3ccccc3Cl)c3ccccn3)C2)c1` (centres unmarked) [Compound 10g], the concentration for half-maximal inhibition (IC50) was 356000 pM.
Consider `Cn1cnc(S(=O)(=O)N2CC(C(NC(=O)c3ccccc3C(F)(F)F)c3ccccn3)C2)c1` (centres unmarked) [Compound 10h], for which the IC50 turned out to be 256000 pM.
Take `Cn1cnc(S(=O)(=O)N2CC(C(NC(=O)c3ccc(Cl)cc3)c3ccccn3)C2)c1` (centres unmarked) [Compound 10i]: the half-inhibitory concentration (IC50) was found to be 940000 pM.
